From patent publication US20250154154A1 (Relay Binney Street, 2nd Floor, priority 2020, published 2025)
pIC50: −log10 of the molar value.

Assays:
[1] = target: SRC (Homo sapiens, UniProt P12931); experiment: SRC Biochemical Assay Protocol (microfluidic mobility shift assay, FLPeptide4 substrate)
In short: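 Mobility-shift readout of phosphorylated FLPeptide4 (1.5 μM) after 90 min kinase reaction with 50 μM ATP and 0.26 nM SRC in pH 7.4 HEPES buffer. Compounds, tested 0.0017–100 μM, were preincubated 30 min with enzyme and peptide; IC50 from 4-parameter logistic fit versus neutral controls.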

[2] = tested on: RBE cells; experiment: Cell Viability Protocol (CellTiterGlo), RBE cells; assay type: cell-based; details: RBE or SNU-1079 cells, 72 or 120 hour, cell line and time not given
In short: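 After 72 h or 120 h compound exposure at 37° C, viability was read by CellTiterGlo as % of DMSO vehicle, with IC50 fitted by a 4-parameter curve. Cells had been seeded at 1200/well in 10% FBS RPMI 1640 and allowed 24 h before dosing.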

[3] = tested on: phospho-S6RP (Ser 235/236) in RBE cells; experiment: Cellular Proliferation Protocol (cellular phospho-S6RP HTRF), RBE cells; assay type: cell-based; details: 6 hours treatment, RBE or SNU-1079 cells, cell line not given
In short: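 Phospho-S6RP (Ser 235/236) was quantified by HTRF in lysed RBE cells (2000/well) after a 6 h treatment at 37° C, with overnight antibody incubation at room temperature. IC50 values came from 4-parameter dose-response fits relative to DMSO vehicle.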

Molecule	pIC50 [1]	pIC50 [2]	pIC50 [3]	pIC50 ([3]; 6 h)
C=CC(=O)N1CC[C@@H](N2CC(C#Cc3c(-c4cccc(OC)n4)c4c(N)ncnc4n3C)C2)[C@@H](O)C1 [II-61]	6.00 to 8.00	5.00 to 6.00	6.00 to 8.00	
C=CC(=O)N1CC[C@H](N2CC(C#Cc3c(-c4ccc(Cl)c(C(F)F)c4)c4c(N)ncnc4n3C(C)C)C2)[C@H](O)C1 [II-118]	≥ 8.00	6.00 to 8.00	6.00 to 8.00	
C=CC(=O)N1CC[C@@H](N2CC(C#Cc3c(-c4ccc(Cl)c(OC)c4)c4c(N)ncnc4n3C(C)C)C2)[C@@H](O)C1 [II-55]	≥ 8.00	6.00 to 8.00	≥ 8.00	
1-((3S,4R)-4-(3-((4-amino-7-methyl-5-(4-(1-methyl-cyclopropoxy)phenyl)-7H-pyrrolo[2,3-d]pyrimidin-6-yl)ethynyl)azetidin-1-yl)-3-hydroxypiperidin-1-yl)prop-2-en-1-one [II-17]	6.00 to 8.00	≥ 8.00	≥ 8.00	
C=CC(=O)N1CCC(N2CC(C#Cc3c(-c4ccc(Cl)c(OC)n4)c4c(N)ncnc4n3C)C2)CC1CO (stereo not drawn) [II-319]	6.00 to 8.00	6.00 to 8.00	6.00 to 8.00	
C=CC(=O)N1CC[C@@H](N2CC(C#Cc3c(-c4ccc(OC(F)(F)F)cc4)c4c(N)ncnc4n3C)C2)[C@@H](O)C1 [II-73]	6.00 to 8.00	6.00 to 8.00	6.00 to 8.00	
C=CC(=O)N1CC[C@H](N2CC(C#Cc3c(-c4ccc(Oc5ccccc5)cc4)c4c(N)ncnc4n3C)C2)[C@@H](O)C1 [II-221, 1-((3S,4S)-4-(3-((4-amino-7-methyl-5-(4-phenoxyphenyl)-7H-pyrrolo[2,3-d]pyrimidin-6-yl)ethynyl)azetidin-1-yl)-3-hydroxypiperidin-1-yl)prop-2-en-1-one]	≥ 8.00	≥ 8.00		≥ 8.00
C=CC(=O)N1CC2C(C#Cc3c(-c4ccc(Cl)c5c4OCO5)c4c(N)ncnc4n3C)C2C1 (stereo not drawn) [II-127]	≥ 8.00	6.00 to 8.00	6.00 to 8.00	
C=CC(=O)N1CCC(N2CC(F)(C#Cc3c(-c4ccc(Oc5ccccc5)c(OC)c4)c4c(N)ncnc4n3C)C2)CC1 [II-246, 1-(4-(3-((4-amino-5-(3-methoxy-4-phenoxyphenyl)-7-methyl-7H-pyrrolo[2,3-d]pyrimidin-6-yl)ethynyl)-3-fluoroazetidin-1-yl)piperidin-1-yl)prop-2-en-1-one]	6.00 to 8.00	≥ 8.00		6.00 to 8.00
C=CC(=O)N1CC[C@@H](N2CC(C#Cc3c(-c4ccc(Cl)cc4)c4c(N)ncnc4n3C(C)C)C2)[C@@H](O)C1 [II-53]	≥ 8.00	6.00 to 8.00	6.00 to 8.00	
C=CC(=O)N1CCC(N2CC(C#Cc3c(-c4ccc(Oc5cccc(C)n5)cc4)c4c(N)ncnc4n3C)C2)C(F)C1 (stereo not drawn) [II-216, 1-(4-(3-((4-amino-7-methyl-5-(4-(6-methylpyridin-2-yloxy)phenyl)-7H-pyrrolo[2,3-d]pyrimidin-6-yl)ethynyl)azetidin-1-yl)-3-fluoropiperidin-1-yl)prop-2-en-1-one]	6.00 to 8.00	6.00 to 8.00		6.00 to 8.00
C=CC(=O)N1CCC(N2CC(C#Cc3c(-c4ccc(Cl)cn4)c4c(N)ncnc4n3C)C2)CC1 [II-325]	6.00 to 8.00	5.00 to 6.00	5.00 to 6.00	
C=CC(=O)N1CC[C@@H](N2CC(C#Cc3c(-c4ccc5c(c4)OCCO5)c4c(N)ncnc4n3C)C2)[C@@H](O)C1 [II-74]	6.00 to 8.00	6.00 to 8.00	6.00 to 8.00	
C=CC(=O)N1CC[C@@H](N2CC(C#Cc3c(-c4ccc(OC5CC5)cc4)c4c(N)ncnc4n3C)C2)[C@@H](O)C1 [II-70]	5.00 to 6.00	6.00 to 8.00	6.00 to 8.00	
